Patent US10357036B2, “Compounds for controlling arthropods” (priority 2015, dated 2019)

Assays:
Musca domestica = Musca domestica test; format: in vivo; conditions: 100 ppm; adult houseflies; after 2 days
Method: (§1) • Solvent: dimethyl sulfoxide
To produce a suitable active ingredient formulation, 10 mg of active ingredient are mixed with 0.5 ml of dimethyl sulfoxide, and the concentrate is diluted with water to the desired concentration.
Vessels containing a sponge treated with sugar solution and the active ingredient formulation of the desired concentration are populated with 10 adult houseflies (Musca domestica).

Ctenocephalides felis = Ctenocephalides felis oral test; format: in vivo; conditions: 100 ppm in citrated cattle blood; after 2 days
Method: • Solvent: Dimethyl Sulfoxide
To produce a suitable active ingredient formulation, 10 mg of active ingredient are mixed with 0.5 ml of dimethyl sulfoxide. Dilution with citrated cattle blood gives the desired concentration.
About 20 unfed adult cat fleas (Ctenocephalides fells) are placed into a chamber which is closed at the top and bottom with gauze. A metal cylinder whose bottom end is closed with parafilm is placed onto the chamber. The cylinder contains the blood/active ingredient formulation, which can be imbibed by the fleas through the parafilm membrane.

Spodoptera frugiperda = Spodoptera frugiperda spray test; format: in vivo; conditions: 100 g/ha; after 7 days
Phaedon cochleariae = Phaedon cochleariae spray test; conditions: 100 g/ha; after 7 days
Boophilus microplus = Boophilus microplus injection test; format: in vivo; conditions: 20 μg/animal; assessed after 7 days
Method: as §1
1 μl of the active ingredient solution is injected into the abdomen of 5 engorged adult female cattle ticks (Boophilus microplus). The animals are transferred into dishes and kept in a climate-controlled room.

Rhipicephalus sanguineus = Rhipicephalus sanguineus in vitro contact test with adult brown dog ticks; format: in vivo; conditions: application rate 5 μg/cm^2 (=500 g/ha); after 48 h; dead or moribund ticks
Method: For the coating of the test tubes, 9 mg of active ingredient are first dissolved in 1 ml of acetone p.a. and then diluted to the desired concentration with acetone p.a. 250 μl of the solution are distributed homogeneously on the inner walls and the base of a 25 ml glass tube by turning and rocking on an orbital shaker (rocking rotation at 30 rpm for 2 h). With 900 ppm of active ingredient solution and internal surface area 44.7 cm^2, given homogeneous distribution, an area-based dose of 5 μg/cm^2 is achieved.
After the solvent has evaporated off, the tubes are populated with 5-10 adult dog ticks (Rhipicephalus sanguineus), sealed with a perforated plastic lid and incubated in a horizontal position in the dark at room temperature and ambient humidity. After 48 h, efficacy is determined. To this end, the ticks are knocked to the base of the tube and incubated on a hotplate at 45-50° C. for not more than 5 min. Ticks which remain motionless on the base or move in such an uncoordinated manner that they are unable to deliberately avoid the heat by climbing upwards are considered to be dead or moribund.
An efficacy of 100% means that all the ticks were dead or moribund. 0% efficacy means that none of the ticks were harmed.

Tetranychus urticae = Tetranychus urticae spray test, OP-resistant (bean leaf discs); format: in vivo; conditions: 100 g/ha; after 6 days
Method: After 6 days, the efficacy in % is determined.

Row | Compound | efficacy (rate of extermination) (Musca domestica) | efficacy (rate of extermination) (Ctenocephalides felis) | efficacy (Spodoptera frugiperda) | efficacy (Phaedon cochleariae) | efficacy (laying of fertile eggs) (Boophilus microplus) | efficacy (Rhipicephalus sanguineus) | efficacy (Tetranychus urticae)
1 | CC(=O)NCc1cccc(-c2cnn(-c3c(Cl)cc(C(F)(C(F)(F)F)C(F)(F)F)cc3C(F)(F)F)c2)c1F [Ia-151] | 100% | 100% | 100% | 100% | 100% | – | –
2 | CCC(=O)NCc1c(F)ccc(-c2cnn(-c3c(Cl)cc(C(F)(C(F)(F)F)C(F)(F)F)cc3C(F)(F)F)c2)c1F [Ia-146] | 100% | 100% | 100% | 100% | 100% | 100% | –
3 | N#Cc1cc(C(F)(C(F)(F)F)C(F)(F)F)cc(Cl)c1-n1cc(-c2cccc(CNC(=O)C3CC3)c2)cn1 [Ia-98] | 90% | 100% | – | 100% | 100% | – | 90%
4 | CN(Cc1cc(-c2cnn(-c3c(Cl)cc(C(F)(C(F)(F)F)C(F)(F)F)cc3Cl)c2)ccc1Cl)S(C)(=O)=O [Ic-04] | 100% | 100% | 100% | 100% | – | – | 100%
5 | CCC(=O)NCc1cc(-c2cnn(-c3c(Cl)cc(C(F)(C(F)(F)F)C(F)(F)F)cc3Cl)c2)cnc1Cl [Ia-132] | 100% | 100% | 100% | 100% | 100% | – | –
6 | CCCCC(=O)NCc1cc(-c2cnn(-c3c(Cl)cc(C(F)(C(F)(F)F)C(F)(F)F)cc3C(F)F)c2)ccc1F [Ia-59] | 100% | 100% | 100% | 100% | 100% | – | 100%
7 | CC(C)CC(=O)NCc1cc(-c2cnn(-c3c(Cl)cc(C(F)(C(F)(F)F)C(F)(F)F)cc3C(F)F)c2)ccc1F [Ia-61] | 80% | 100% | 100% | – | 100% | – | 70%
8 | CSc1cc(C(F)(C(F)(F)F)C(F)(F)F)cc(Cl)c1-n1cc(-c2ccc(F)c(CNC(=O)C3CC3)c2)cn1 [Ia-12] | 100% | 100% | 83% | 100% | 100% | – | 100%
9 | CCC(=O)NCc1cc(-c2cnn(-c3c(Cl)cc(C(F)(C(F)(F)F)C(F)(F)F)cc3C(F)(F)F)c2)ccc1Cl [Ia-29] | 100% | 100% | 100% | 100% | 100% | 100% | –
10 | CCC(=O)NCc1c(F)ccc(-c2cnn(-c3c(Cl)cc(C(F)(C(F)(F)F)C(F)(F)F)cc3Cl)c2)c1F [Ia-148] | 100% | 100% | 100% | 100% | 100% | – | –
11 | CC(=O)NCc1cccc(-c2cnn(-c3c(Cl)cc(C(F)(C(F)(F)F)C(F)(F)F)cc3OC(F)(F)F)c2)c1 [Ia-38] | 100% | 100% | 100% | 100% | 100% | 80% | –
12 | CC(=O)NCc1cccc(-c2cnn(-c3c(Cl)cc(C(F)(C(F)(F)F)C(F)(F)F)cc3C(F)F)c2)c1F [Ia-144] | 100% | 100% | 100% | 100% | 100% | – | 90%
13 | O=C(NCc1cc(-c2cnn(-c3c(Cl)cc(C(F)(C(F)(F)F)C(F)(F)F)cc3Cl)c2)cnc1Cl)C1CC1 [Ia-18] | 100% | 100% | 100% | 100% | 100% | – | –
14 | CCC(=O)NCc1cc(-c2cnn(-c3c(Cl)cc(C(F)(C(F)(F)F)C(F)(F)F)cc3OC(F)(F)F)c2)cnc1Cl [Ia-133] | 100% | 100% | 100% | 100% | 100% | – | –
15 | CCC(=O)NCc1cc(-c2cnn(-c3c(Cl)cc(C(F)(C(F)(F)F)C(F)(F)F)cc3Cl)c2)ccc1C(F)(F)F [Ia-72] | 100% | 100% | 100% | 100% | 100% | – | 100%
16 | CS(=O)(=O)NCc1cc(-c2cnn(-c3c(Cl)cc(C(F)(C(F)(F)F)C(F)(F)F)cc3Cl)c2)ccc1Cl [Ic-01] | 90% | 100% | 100% | 100% | 100% | – | 100%
17 | O=C(CC(F)(F)F)NCc1cc(-c2cnn(-c3c(Cl)cc(C(F)(C(F)(F)F)C(F)(F)F)cc3Cl)c2)ccc1Cl [Ia-35] | 100% | 100% | 100% | – | 100% | – | –
18 | O=C(NCc1cc(-c2cnn(-c3c(Cl)cc(C(F)(C(F)(F)F)C(F)(F)F)cc3OC(F)(F)F)c2)ccc1F)C1CC1 [Ia-40] | 100% | 100% | 100% | 100% | 100% | 80% | –
19 | N-(2-chloro-5-{1-[2,6-dichloro-4-(1,1,1,2,3,3,3-heptafluoropropan-2-yl)phenyl]-1H-pyrazol-4-yl}benzyl)-N-methylpropanamide [Ia-22] | – | 100% | – | 100% | 100% | 80% | 90%
20 | CC(=O)NCc1cccc(-c2cnn(-c3c(Cl)cc(C(F)(C(F)(F)F)C(F)(F)F)cc3C(F)F)c2)c1 [Ia-02] | 100% | 100% | 100% | 100% | 100% | – | 100%
21 | CCC(=O)NCc1cccc(-c2cnn(-c3c(Cl)cc(C(F)(C(F)(F)F)C(F)(F)F)cc3C(F)F)c2)c1F [Ia-143] | 100% | 100% | 100% | 100% | 100% | 80% | –
22 | CCC(=O)NCc1cccc(-c2cnn(-c3c(Cl)cc(C(F)(C(F)(F)F)C(F)(F)F)cc3C(F)(F)F)c2)c1F [Ia-150] | 100% | 100% | 100% | 100% | 100% | – | 90%
23 | CCC(=O)NC1CCc2ccc(-c3cnn(-c4c(Cl)cc(C(F)(C(F)(F)F)C(F)(F)F)cc4C(F)(F)F)c3)cc21 (stereo not shown) [I-Tc-02] | – | 100% | 100% | – | 100% | 80% | –
24 | CCC(=O)NCc1cc(-c2cnn(-c3c(Cl)cc(C4(C(F)(F)F)CC4)cc3Cl)c2)ccc1Cl [Ia-128] | 100% | 100% | 100% | 100% | – | – | –
25 | CC(=O)NCc1cc(-c2cnn(-c3c(Cl)cc(C(F)(C(F)(F)F)C(F)(F)F)cc3Cl)c2)ccc1C(F)(F)F [Ia-74] | 100% | 100% | 100% | 100% | 100% | – | 100%
26 | O=C(NCc1cccc(-c2cnn(-c3c(Cl)cc(C(F)(C(F)(F)F)C(F)(F)F)cc3Cl)c2)c1)C1CC1 [Ia-41] | 100% | 100% | – | 100% | 100% | – | –
